Test results reported in US8007921B2, “Gypsum board containing antimicrobial and antibacterial compounds” (Quick-Med Technologies, Inc., priority 2003, dated 2011).

Tests used:
S. aureus bacteria = test: zone of inhibition of extract solutions on agar culture plate; assay type: cell-based
Method: A nonwoven rayon gauze material (SofWick, a commercially available rayon gauze material manufactured by Johnson & Johnson) was graft polymerized with diallyldimethylammonium chloride (DADAMC) to 10 weight % poly(DADMAC), to form the cationic cellulose surface. Each gauze substrate treated in this manner measured approximately 40 square inches. One gram samples of cationic cellulose prepared in this manner (sample K), and untreated SofWick (sample L) were each soaked overnight in 25 ml of 0.5% SP solution. Samples were removed and squeezed to remove excess liquid. Samples were then washed in 25 mL of distilled water for one hour with agitation, and then squeezed to remove excess liquid. Each sample was subjected to four sequential extractions using 25 mL of distilled water for one hour at room temperature with agitation. Samples were squeezed to remove excess solution between extraction cycles. A fifth extraction was performed using pH 7.4 phosphate buffered saline (PBS). Saline is expected to remove a greater amount of pyrithione due to ion exchange. The extract solutions were tested for antimicrobial activity by placing single 20 microliter drops of the solutions at marked locations on an agar culture plate spread with ~3×10^3 CFU (continuous lawn) of S. aureus bacteria. Plates were incubated overnight at 37° C., and the diameter of the “zone of inhibition”, or “ZOI” was measured. […]

[1] = cited from earlier work

Compound | ZOI (S. aureus bacteria; 0.01% SP control solution) [mm] | ZOI (S. aureus bacteria; 0.1% SP control solution) [mm] | water solubility (aqueous solutions possible) ([1]; aqueous) [wt %] | max. solubility in water ([1]; water) [%]
[Na+].[O-][n+]1ccccc1[S-] [SP, sodium pyrithione] | 12 | 26 | > 50 | 
Zinc pyrithione |  |  |  | 0.0015
